Entries after “also recorded” stand apart in the source; their conditions may differ. Counter-ions that a name gives are not always drawn.
Columns and labels:
[1] = Cast film plasticizer comparison study (discoloration); assay type: physicochemical; set-up: key: 1 = least discoloration; 5 = greatest discoloration; details: ranitidine HCl spread on cast HPMC film with plasticizer (0.2 gm per gram HPMC); 60 degrees centigrade/78.9% RH, approximately two weeks; visual
Experimental: Cast film studies are performed using a typical film aqueous coating composition containing, on a per gram HPMC dry weight basis, plasticizer, 0.2 gm, and Opaspray (trademark of Colorcon, Inc., West Point, PA) colorant solids 0.5 gm. Cast films are prepared by adding 1.5 g of a 15% solids solution to a uniform plate, 42 mm in diameter, and drying at ambient temperature for at least 24 hours. Ranitidine HCl (1.5 gm), of particle size 50 to 200 microns, is then spread uniformly on the dried film coating and stored at 60 degrees centigrade/78.9% relative humidity (RH) for approximately two weeks. The RH is controlled by using a desiccator jar and a saturated KBr solution, which is maintained at 60° C. in a drying oven. […] After two weeks, the cast films are removed and visually examined for discoloration.

[2] = Compatibility of plasticizer with ranitidine HCl; details: plasticizer in polymeric film coating of ranitidine HCl tablets
[3] = Physicians' Desk Reference, 41st ed., page 993 (1987); cited from earlier work
[4] = cited from earlier work

Cast Film Discoloration [1] | Compound | reactivity with ranitidine HCl or promotion of its degradation [2] | other results
3 | CCOC(=O)CC(O)(CC(=O)OCC)C(=O)OCC [Triethyl Citrate, triethyl citrate] | – | –
5 | OCC(O)CO [Glycerol, glycerol] | – | –
1 | CC(=O)OCC(COC(C)=O)OC(C)=O [Triacetin, 1,2,3-propanetriol triacetate] | essentially unreactive with ranitidine HCl | –
– | CCCCOC(=O)CCCCCCCCC(=O)OCCCC [dibutyl sebecate] | tend to react with ranitidine HCl or promote degradation at the tablets' surfaces | –
– | CNC(=C[N+](=O)[O-])NCCSCc1ccc(CN(C)C)o1 [ranitidine HCl] | – | degradation upon aging [3]: accelerated by heat, moisture and light; solubility in water ([4]; 25° C.): greater than 900 mg/mL; solubility in commonly used organic solvents [4]: very soluble
– | CCOC(=O)c1ccccc1C(=O)OCC [diethyl phthalate] | tend to react with ranitidine HCl or promote degradation at the tablets' surfaces | –

Compound | Cast Film Discoloration [1] | reactivity with ranitidine HCl or promotion of its degradation [2] | other results
CC(O)CO (centres unmarked) [Propylene Glycol, propylene glycol] | 2 | promote degradation; also recorded: tend to react with ranitidine HCl or promote degradation at the tablets' surfaces | –
